This passage reports Ki and EC50 results from patent US8058305B2, “Pyrrolidine derivatives as prostaglandin modulators” (Merck Serono SA, priority 2001, dated 2011).

Experiment [1] deals with T1, h-EP2 (Homo sapiens, UniProt P43116).
T1 construct: expressed in transfected cells; host or cells: HEK293-EBNA
The experiment can be described thus: Prostaglandin EP2 receptor binding assay (3H-PGE2, SPA). To be noted: EP2 receptor membranes, 20 nM 3H-PGE2, pH 6.0, 2 hrs at room temperature. The protocol:
Compounds of the invention were tested in an EP2 receptor binding assay of the following protocol. As referred to herein, the term a “standard EP2 receptor binding assay” designates the following protocol which allows the determination of the affinity of the test compounds for the EP2 receptor

The target of experiment [2] is T1, h-EP2. The experiment can be described thus: EP2 total cAMP assay. Format: cell-based. Conditions: HEK293-EBNA cells transfected with pCEP4-hEP2, 1 hour at 37° C. The protocol: Compounds of the invention were tested in a total cAMP assay as follows. HEK293-EBNA cells transfected with pCEP4-hEP2 receptors were seeded in 96 well opaque plate (Costar #3917) at 4×10^4 cells per well in 100 μl of culture medium (D-MEM/F12 supplemented with 10% FBS, […] L-glutamine, and 250 μg/ml of hygromycin; all from GibcoBRL) and incubated at 37° C. After overnight incubation, the medium was removed from each well and replaced with 45 μl of assay medium consisted of phenol red free D-MEM/F-12, 0.1% BSA (GibcoBRL) and 0.1 mM3-isobutyl-1-methyl-xanthine (Sigma). After 15 minutes of incubation at 37° C., 16-16-dimethyl PGE-2 or compounds at desired concentrations in 20 μl of assay medium were added to cells and further incubated at 37° C. for 1 hour. Total cAMP (intra- and extra-cellular) was measured by using a cAMP-screen ELISA System (Tropix, #CS1000).

The target of the next experiment is h-EP4 (Homo sapiens, UniProt P35408). The experiment can be described thus: EP4 receptor binding assay (3H-PGE2, SPA). To be noted: EP4 receptor membranes, 20 nM 3H-PGE2, pH 6.0, 2 hrs at room temperature. Here is the method:
Compounds of the invention were tested in an EP4 receptor binding assay of the following protocol which allows the determination of the affinity of the test compounds for the EP4 receptor.

As usually defined, the Ki is the equilibrium dissociation constant of an inhibitor or competing ligand from its target. The EC50 is the concentration at which the effect is half-maximal. A high value points to a need for much substance.

T1 sequence (P43116 whole entry): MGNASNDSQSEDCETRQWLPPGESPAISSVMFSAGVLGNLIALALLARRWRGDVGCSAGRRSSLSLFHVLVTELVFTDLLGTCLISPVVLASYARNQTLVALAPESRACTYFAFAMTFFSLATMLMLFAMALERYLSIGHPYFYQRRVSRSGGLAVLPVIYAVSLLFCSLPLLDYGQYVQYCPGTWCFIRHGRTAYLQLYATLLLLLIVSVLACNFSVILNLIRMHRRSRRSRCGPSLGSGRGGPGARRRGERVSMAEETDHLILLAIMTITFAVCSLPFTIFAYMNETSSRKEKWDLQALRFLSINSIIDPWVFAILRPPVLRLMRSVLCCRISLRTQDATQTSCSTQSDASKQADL
Sequence of h-EP4 (P35408 whole entry): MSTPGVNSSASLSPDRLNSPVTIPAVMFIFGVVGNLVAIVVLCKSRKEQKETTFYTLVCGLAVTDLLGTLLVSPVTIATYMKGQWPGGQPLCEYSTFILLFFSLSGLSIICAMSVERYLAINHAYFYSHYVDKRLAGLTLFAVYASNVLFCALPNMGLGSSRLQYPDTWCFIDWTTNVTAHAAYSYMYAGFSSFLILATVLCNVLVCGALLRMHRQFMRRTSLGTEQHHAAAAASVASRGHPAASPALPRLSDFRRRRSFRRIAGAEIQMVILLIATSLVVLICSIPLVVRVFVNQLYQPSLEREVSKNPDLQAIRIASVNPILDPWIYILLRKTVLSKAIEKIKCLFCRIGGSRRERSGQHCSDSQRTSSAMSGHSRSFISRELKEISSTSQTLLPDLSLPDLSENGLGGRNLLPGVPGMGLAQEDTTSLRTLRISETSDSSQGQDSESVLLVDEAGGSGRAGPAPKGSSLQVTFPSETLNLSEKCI

Regarding `Cc1cccc(CC(O)CCN2CCC(=O)[C@@H]2C/C=C\CCCC(=O)O)c1` (stereo partly drawn) [Example 13, (5Z)-7-{(2S)-1-[3-hydroxy-4-(3-methylphenyl)butyl]-3-oxopyrrolidin-2-yl}hept-5-enoic acid], the Ki at h-EP2 [1] came out at 10000 nM; at h-EP4 it was 5 nM. The compound further had an EC50 at h-EP2 [2] of 370 nM.

For the compound `CCCCC[C@@H](O)CCCN1CC[C@@H](Cl)C1C/C=C\CCCC(=O)O` (stereo in doubt) [Example 1, (5Z)7-[(2R,3R)-3-Chloro-1-(4-hydroxynonyl)-pyrrolidin-2-yl]-hept-5-enoic acid], on h-EP2 [1], the affinity, expressed as Ki, was 5600 nM. For the same compound, the EC50 at h-EP2 [2] was determined as 48 nM.

Compound `CCCCC1(C(O)CCCN2CC[C@@H](Cl)[C@@H]2CCc2ccc(C(=O)O)cc2)CCC1` (stereo in doubt) [Example 11, 4-(2-{1-[4-(1-butylcyclobutyl)-4-hydroxybutyl]-3-chloropyrrolidin-2-yl}ethyl)benzoic acid] came in with a Ki at h-EP2 [1] of 3500 nM. The compound also yielded an EC50 on h-EP2 [2] of 250 nM.

Regarding “(5Z)-7-{(trans-2,3)-3-Chloro-1-[(4S and 4 R)-hydroxy-4-(1-butylcyclobutyl)butyl]pyrrolidin-2-yl}hept-5-enoic acid [Example 15]”, the Ki on h-EP2 [1] stood at 11000 nM; at h-EP4, 156 nM. The compound also had an EC50 on h-EP2 [2] of 8500 nM.
